Data from patent US6703371B1, “Preparations for reducing oxygen consumption during physical efforts” (priority 1999, dated 2004).
Like-named read-outs stand apart in the source and are kept apart here.

What was measured:
[1] = Oxygen-sparing action during physical work, general findings in the description; assay type: in vivo; conditions: result in words; for Oxygen demand after administration: even occasionally increased
test subject [2] = experiment: Bicycle ergometer test at 100 W: antagonism between inactive (1st dosage) and active (2nd dosage) substances (Example 1b); assay type: in vivo, human; conditions: for Average heart rate after 1st dosage: 10-minute test at 100 W; for Average heart rate before: 10-minute control test at 100 W before the 1st dosage; for Change in the oxygen consumption after 2nd dosage: relative to after 1st dosage
Procedure: (§1) 13 to Mar. 6, 1999, with a subject in good physical condition under standard conditions. The subject was required each morning in the fasting state to perform successively (without interruption) at mechanical power output of 100 W, 125 W and 150 W, each lasting 10 minutes (total test duration 30 minutes each time). […] The heat production induced by mechanical exertion was calculated from the changes in the heart rate. An alternative possibility is also to determine it on the basis of the increase in humidity caused by the perspiration (the tests are carried out in a closed room) or reduction in weight (1 g of water=2.26 kJ). […] The values indicated in table la for the “average heart rate” are in each case averages over the 30-minute duration of the test; relative values for the oxygen consumption were established on the basis of the heart rates in a known manner, and the relative values indicated in Table 1a are based on the oxygen consumption on the first day (=100%); the values listed in the column “heat production” in Table 1a give the percentage deviation of the heat production, established on the basis of the perspiration, from the average from all the tests.
(§2) It is known that the oxygen uptake can be determined by measuring the heart rate as a function of the mechanical exertion. This ergometric method is based on establishing the oxygen transport volume through the action of the heart. Since the stroke volume is essentially constant irrespective of the intensity of the mechanical work, and the increased oxygen demand caused by the increase in work results in an increase in the heart rate, the quantity of the transported oxygen can be established by determining the additional heartbeats caused by the work. A 3-stage ergometer as recommended by the World Health Organization (WHO) is used in physiology research institutes and fitness clubs around the world.

test subject [3] = assay type: in vivo, human; conditions: Homo sapiens, 10 min
test subject [4] = experiment: Bicycle ergometer test at 100 W: active ingredient, sucrose, further active ingredient, amino acid/vitamin product (Example 1c); assay type: in vivo, human; conditions: for Change in oxygen consumption after 2nd dos.: 2nd dosage 2.5 g of sucrose; for Change in oxygen consumption after 2nd dos. / Change in oxygen consumption after 4th dos. / Change in oxygen consumption after 3rd dos.: relative to preceding dosage; for Change in oxygen consumption after 4th dos.: 4th dosage Na glutamate/folic acid/cyanocobalamin/gelatin; for Average heart rate after 1st dos.: 10-minute test at 100 W
test subject [5] = experiment: as above; assay type: in vivo, human; conditions: for Average heart rate after 4th dos.: 4th dosage 100 mg of Na glutamate, 0.3 mg of folic acid, 5 μg of cyanocobalamin in 10 mg of gelatin; for Average heart rate after 2nd dos.: then 2nd dosage 2.5 g of sucrose
Procedure: as §1, §2

[6] = 1st dosage 10 mg in 20 ml of water
[7] = read-out: Change in the oxygen demand
[8] = read-out: Heat production (deviation from the average of all the tests)
[9] = 1st dosage 1 mg as dilute aqueous solution
[10] = 3rd dosage further 1 mg of active ingredient
[11] = 3rd dosage further 1 mg of active ingredient after sucrose
[12] = after 1 mg of active ingredient
[13] = 2nd dosage 1 mg, after 50 mg of opipramol, 100 W
[14] = 2nd dosage 1 mg, after 1st dosage of 50 mg of opipramol, 100 W

Cl.Cl.OCCN1CCN(CCC=C2c3ccccc3Sc3ccc(C(F)(F)F)cc32)CC1 (mixture of isomers) [flupentixol]
Oxygen demand after administration [1]: not reduced
Average heart rate after 1st dosage (test subject [2]; 1st dosage 0.5 mg in 20 ml of water): 118.4 per minute
Change in the oxygen consumption after 1st dosage (test subject [2]; 1st dosage 0.5 mg, 100 W): +32%
Average heart rate before (test subject [2]): 102.6 per minute

CN(C)CCC=C1c2ccccc2CCc2ccccc21 [amitriptyline]
Oxygen demand after administration [1]: not reduced
Average heart rate after 1st dosage (test subject [2]; [6]): 119.3 per minute
change in vivo at 10 mg (test subject [2]; Homo sapiens, 1st dosage 10 mg, 100 W, read-out: Change in the oxygen consumption after 1st dosage): 71%

CCOC(=O)n1ccn(C)c1=S [carbimazole]
Suitability for reducing the oxygen consumption during physical work [1]: suitable

CNC1=Nc2ccc(Cl)cc2C(c2ccccc2)=[N+]([O-])C1 [chlordiazepoxide]
Average heart rate after 1st dosage (test subject [2]; 1st dosage 5 mg in 20 ml of water): 126.4 per minute
change in vivo at 5 mg (test subject [2]; Homo sapiens, 1st dosage 5 mg, 100 W, read-out: Change in the oxygen consumption after 1st dosage): 29%
change in vivo at 1 mg (test subject [3]; [7]): 0%
change in vivo at 1 mg (test subject [3]; [8]): 14%

CN(C)CC/C=C1/c2ccccc2Sc2ccc(Cl)cc21 [chlorprothixen, chlorprothixene]
Oxygen demand after administration [1]: not reduced
Average heart rate after 1st dosage (test subject [2]; [6]): 124.6 per minute
Change in the oxygen consumption after 1st dosage (test subject [2]; 1st dosage 10 mg, 100 W): +46%
Average heart rate before (test subject [2]): 101.7 per minute

CN1CCC[C@@H]1CCO[C@](C)(c1ccccc1)c1ccc(Cl)cc1 [clemastine]
Suitability for reducing the oxygen consumption during physical work [1]: suitable

CN1C(=O)CC(=O)N(c2ccccc2)c2cc(Cl)ccc21 [clobazam]
change in vivo at 1 mg (test subject [3]; [7]): -51%
change in vivo at 1 mg (test subject [3]; [8]): -49%

CN(C)CCCN1c2ccccc2CCc2ccc(Cl)cc21 [clomipramine]
Oxygen demand after administration [1]: not reduced
Average heart rate after 1st dosage (test subject [2]; 1st dosage 25 mg in 20 ml of water): 134.8 per minute
change in vivo at 25 mg (test subject [2]; Homo sapiens, 1st dosage 25 mg, 100 W, read-out: Change in the oxygen consumption after 1st dosage): 42%

CN1CCN(C2=Nc3ccccc3Sc3ccc(Cl)cc32)CC1 [clothiapine]
Change in oxygen consumption after 2nd dos. (test subject [4]; 1 mg series): +78%
Change in oxygen consumption after 4th dos. (test subject [4]; 1 mg series): −63%
Average heart rate after 1st dos. (test subject [4]; [9]): 73.2 per minute
Change in oxygen consumption after 3rd dos. (test subject [4]; [10]): +3%
Suitability for reducing the oxygen consumption during physical work [1]: suitable
Average heart rate after 4th dos. (test subject [5]; 1 mg series): 82.2 per minute
Average heart rate after 3rd dos. (test subject [5]; [11]): 113.9 per minute
Average heart rate after 2nd dos. (test subject [5]; [12]): 112.4 per minute
Change in the oxygen consumption after 2nd dosage (test subject [2]; 2nd dosage 1 mg, after 25 mg of clomipramine, 100 W): −70%
Change in the oxygen consumption after 2nd dosage (test subject [2]; [13]): −65%
Average heart rate after 2nd dosage (test subject [2]; 2nd dosage 1 mg, after 1st dosage of 25 mg of clomipramine, 100 W): 100.0 per minute
Average heart rate after 2nd dosage (test subject [2]; [14]): 88.9 per minute

CN1CCC(=C2c3ccccc3C=Cc3ccccc32)CC1 [cyproheptadine]
Change in oxygen consumption after 2nd dos. (test subject [4]; 0.2 mg series): +69%
Change in oxygen consumption after 4th dos. (test subject [4]; 0.2 mg series): −45%
Average heart rate after 1st dos. (test subject [4]; 1st dosage 0.2 mg as dilute aqueous solution): 74.7 per minute
Change in oxygen consumption after 3rd dos. (test subject [4]; 3rd dosage further 0.2 mg of active ingredient): −5%
Average heart rate after 4th dos. (test subject [5]; 0.2 mg series): 83.9 per minute
Average heart rate after 3rd dos. (test subject [5]; 3rd dosage further 0.2 mg of active ingredient after sucrose): 106.4 per minute
Average heart rate after 2nd dos. (test subject [5]; after 0.2 mg of active ingredient): 109.1 per minute
Change in the oxygen consumption after 2nd dosage (test subject [2]; 2nd dosage 0.2 mg, after 5 mg of chlordiazepoxide, 100 W): −76%
Change in the oxygen consumption after 2nd dosage (test subject [2]; 2nd dosage 0.2 mg, after 10 mg of amitriptyline, 100 W): −63%
Average heart rate after 2nd dosage (test subject [2]; 2nd dosage 0.2 mg, after 1st dosage of 5 mg of chlordiazepoxide, 100 W): 88.5 per minute
Average heart rate after 2nd dosage (test subject [2]; 2nd dosage 0.2 mg, after 1st dosage of 10 mg of amitriptyline, 100 W): 87.6 per minute

CN(C)CCN1C(=O)c2ccccc2N(C)c2ccccc21 [dibenzepin]
Change in oxygen consumption after 2nd dos. (test subject [4]; 1 mg series): +69%
Change in oxygen consumption after 4th dos. (test subject [4]; 1 mg series): −57%
Average heart rate after 1st dos. (test subject [4]; [9]): 77.2 per minute
Change in oxygen consumption after 3rd dos. (test subject [4]; [10]): 0%
Suitability for reducing the oxygen consumption during physical work [1]: suitable
Average heart rate after 4th dos. (test subject [5]; 1 mg series): 86.4 per minute
Average heart rate after 3rd dos. (test subject [5]; [11]): 115 per minute
Average heart rate after 2nd dos. (test subject [5]; [12]): 111.5 per minute
Change in the oxygen consumption after 2nd dosage (test subject [2]; [13]): −59%
Average heart rate after 2nd dosage (test subject [2]; [14]): 88.3 per minute

COc1ccc2c3c1O[C@H]1[C@@H](O)CC[C@H]4[C@@H](C2)N(C)CC[C@@]341 [dihydrocodeine]
Suitability for reducing the oxygen consumption during physical work [1]: suitable

CN(C)CCOC(C)(c1ccccc1)c1ccccn1 (stereo not drawn) [doxylamine]
Oxygen demand after administration [1]: not reduced

CN1C(=O)CN=C(c2ccccc2F)c2cc([N+](=O)[O-])ccc21 [flunitrazepam]
Suitability for reducing the oxygen consumption during physical work [1]: suitable
change in vivo at 1 mg (test subject [3]; [7]): -39%
change in vivo at 1 mg (test subject [3]; [8]): -40%

O=C1Nc2ccc(Cl)cc2C(c2ccccc2Cl)=NC1O (stereo not drawn) [lorazepam]
Oxygen demand after administration [1]: not reduced
Average heart rate after 1st dosage (test subject [2]; 1st dosage 1 mg in 20 ml of water): 121.5 per minute
change in vivo at 1 mg (test subject [2]; Homo sapiens, 1st dosage 1 mg, 100 W, read-out: Change in the oxygen consumption after 1st dosage): 34%

CN1CC[C@]23c4c5ccc(O)c4O[C@H]2[C@@H](O)C=C[C@H]3[C@H]1C5 [morphine]
Suitability for reducing the oxygen consumption during physical work [1]: suitable

COc1ccc2c(c1OC)C(=O)O[C@@H]2[C@H]1c2c(cc3c(c2OC)OCO3)CCN1C [noscapine]
Suitability for reducing the oxygen consumption during physical work [1]: suitable

OCCN1CCN(CCCN2c3ccccc3C=Cc3ccccc32)CC1 [opipramol]
Oxygen demand after administration [1]: not reduced

O=C1Nc2ccc(Cl)cc2C(c2ccccc2)=NC1O (stereo not drawn) [oxazepam]
change in vivo at 7 mg (test subject [2]; Homo sapiens, 1st dosage 7 mg, 100 W, read-out: Change in the oxygen consumption after 1st dosage): 33%
change in vivo at 1 mg (test subject [3]; [7]): 0%
change in vivo at 1 mg (test subject [3]; [8]): 7%

CSc1ccc2c(c1)N(CCC1CCCCN1C)c1ccccc1S2 (stereo not drawn) [thioridazine]
Change in oxygen consumption after 2nd dos. (test subject [4]; 1 mg series): +69%
Change in oxygen consumption after 4th dos. (test subject [4]; 1 mg series): −49%
Average heart rate after 1st dos. (test subject [4]; [9]): 76.3 per minute
Change in oxygen consumption after 3rd dos. (test subject [4]; [10]): 0%
Suitability for reducing the oxygen consumption during physical work [1]: suitable
Average heart rate after 4th dos. (test subject [5]; 1 mg series): 86.5 per minute
Average heart rate after 3rd dos. (test subject [5]; [11]): 111.2 per minute
Average heart rate after 2nd dos. (test subject [5]; [12]): 111.0 per minute
Change in the oxygen consumption after 2nd dosage (test subject [2]; 2nd dosage 1 mg, after 10 mg of imipramine, 100 W): −56%
Average heart rate after 2nd dosage (test subject [2]; 2nd dosage 1 mg, after 1st dosage of 10 mg of imipramine, 100 W): 81.5 per minute

CN1CCN(C(=O)OC2c3nccnc3C(=O)N2c2ccc(Cl)cn2)CC1 (stereo not drawn) [zopiclone]
Suitability for reducing the oxygen consumption during physical work [1]: suitable
change in vivo at 1 mg (test subject [3]; [8]): -44%
